Structures can show the parent of a compound that is named as a salt.
Legend:
[1] = molecular target: Recombinant human MALT-1 (amino acids 340-824) (Homo sapiens (Human), UniProt Q9UDY8); assay: MALT-1 inhibition assay (fluorogenic substrate Ac-LRSR-Rh110-DP); format: biochemical; conditions: recombinant human MALT-1, substrate Ac-LRSR-Rh110-DP
How it was run: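 MALT-1 at 3 nM final was reacted with 10 μM Ac-LRSR-Rh110-DP, with substrate addition starting the reaction. Incubation ran 60 minutes at 25° C in the dark. Percent inhibition from fluorescence across doses was fitted to a 4-parameter logistic to give IC50.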

[2] = tested on: IL-2 secretion by human effector memory T cells (TEM); assay: Effector memory T cells IL-2 release assay; format: cell-based; conditions: T-cell; human CD4+ effector memory T cells, CD3/CD28 bead stimulation, 24 h; read-out: CD4TC IL2 IC50
How it was run: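 Human CD4+ effector memory T cells from healthy-donor buffy coats were stimulated with anti-CD3/CD28 Dynabeads and exposed to 10 semi-log compound doses (0.1% DMSO) for 24 h at 37 °C. Supernatant IL-2 was measured by HTRF, and IC50 came from a 4-parameter logistic fit to maximal IL-2. Viability was checked by flow cytometry.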

Sequence of Recombinant human MALT-1 (amino acids 340-824) (Q9UDY8 340-824): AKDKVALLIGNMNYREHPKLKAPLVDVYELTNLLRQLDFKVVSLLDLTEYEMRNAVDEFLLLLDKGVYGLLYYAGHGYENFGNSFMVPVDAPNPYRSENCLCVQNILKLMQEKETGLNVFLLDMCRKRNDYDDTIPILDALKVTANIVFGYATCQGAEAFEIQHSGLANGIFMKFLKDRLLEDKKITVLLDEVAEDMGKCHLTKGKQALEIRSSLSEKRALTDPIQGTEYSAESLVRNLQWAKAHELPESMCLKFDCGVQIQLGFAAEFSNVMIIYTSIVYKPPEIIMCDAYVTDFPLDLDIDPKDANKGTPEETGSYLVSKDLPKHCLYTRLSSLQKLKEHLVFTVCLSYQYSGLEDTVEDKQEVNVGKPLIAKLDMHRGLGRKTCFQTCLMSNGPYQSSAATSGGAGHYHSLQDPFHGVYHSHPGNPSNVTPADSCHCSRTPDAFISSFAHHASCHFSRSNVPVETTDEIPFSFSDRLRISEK

SMILES | IC50 [1] | IC50 [2]
CN(C(=O)C1CCS(=O)(=O)CC1)[C@@H](c1ccc(N2CCCc3c2cnc2cc(F)nn32)nc1)C(F)(F)F [CPD0021665, N-methyl-1,1-dioxo-N-[(1S)-2,2,2-trifluoro-1-(6-{4-fluoro-2,3,7,10-tetraazatricyclo[7.4.0.0^2,6]trideca-1(9),3,5,7-tetraen-10-yl}pyridin-3-yl)ethyl]-1λ^6-thiane-4-carboxamide] | 638 nM | 2100 nM
CN(C(=O)CC1CS(=O)(=O)C1)[C@@H](c1ccc(N2CCCc3c2cnc2cc(Cl)nn32)cc1)C(F)(F)F [CPD0072798, N-[(1S)-1-(4-{4-chloro-2,3,7,10-tetraazatricyclo[7.4.0.0^2,6]trideca-1(9),3,5,7-tetraen-10-yl}phenyl)-2,2,2-trifluoroethyl]-2-(1,1-dioxo-1λ^6-thietan-3-yl)-N-methylacetamide] | 142 nM | 200 nM
CN(C)CC(=O)N1CC[C@@H](C(=O)N(C)[C@@H](c2ccc(N3CCCc4c3cnc3cc(Cl)nn43)cc2)C(F)(F)F)C1 (relative stereo) [CPD0075877, (3rel-S)-N-[(1S)-1-[4-(4-chloro-2,3,7,10-tetrazatricyclo[7.4.0.0^2,6]trideca-1(9),3,5,7-tetraen-10-yl)phenyl]-2,2,2-trifluoro-ethyl]-1-[2-(dimethylamino)acetyl]-N-methyl-pyrrolidine-3-carboxamide] | 115 nM | 172 nM
CN(C(=O)N1CCS(=O)(=O)CC1)[C@@H](c1ccc(N2CCCc3c2cnc2cc(Cl)nn32)cc1)C(F)(F)F [CPD0072804, N-[(1S)-1-(4-{4-chloro-2,3,7,10-tetraazatricyclo[7.4.0.0^2,6]trideca-1(9),3,5,7-tetraen-10-yl}phenyl)-2,2,2-trifluoroethyl]-N-methyl-1,1-dioxo-1λ^e-thiomorpholine-4-carboxamide] | 159 nM | 307 nM
CN(C(=O)C1CCCOC1)[C@@H](c1ccc(N2CCCc3c2cnc2cc(Cl)nn32)cc1)C(F)(F)F (stereo partly drawn) [CPD0021572, N-[(1S)-1-(4-{4-chloro-2,3,7,10-tetraazatricyclo[7.4.0.0^2,6]trideca-1(9),3,5,7-tetraen-10-yl}phenyl)-2,2,2-trifluoroethyl]-N-methyloxane-3-carboxamide] | 166 nM | 193 nM
CN(C(=O)C1CN(C(=O)[C@H]2CCO2)C1)[C@@H](c1ccc(N2CCCc3c2cnc2cc(Cl)nn32)cc1)C(F)(F)F (relative stereo) [CPD0073562, N-[(1S)-1-(4-{4-chloro-2,3,7,10-tetraazatricyclo[7.4.0.0^2,6]trideca-1(9),3,5,7-tetraen-10-yl}phenyl)-2,2,2-trifluoroethyl]-N-methyl-1-[(2rel-R)-oxetane-2-carbonyl]azetidine-3-carboxamide] | 80 nM | 352 nM
CN(C(=O)C1CCS(=O)(=O)CC1)[C@@H](c1ccc(N2CCCc3c2cnc2cc(Cl)nn32)cc1)C(F)(F)F [CPD0019184, N-[(1S)-1-(4-{4-chloro-2,3,7,10-tetraazatricyclo[7.4.0.0^2,6]trideca-1(9),3,5,7-tetraen-10-yl}phenyl)-2,2,2-trifluoroethyl]-N-methyl-1,1-dioxo-1λ^6-thiane-4-carboxamide] | 59 nM | 68 nM
C[C@@H]1CCN(c2ccc([C@H](N(C)C(=O)[C@H]3CC[S@@](=N)(=O)CC3)C(F)(F)F)cc2)c2cnc3cc(Cl)nn3c21 (relative stereo) [CPD0073192, (1rel-s,4rel-s)-N-[(1S)-1-{4-[(13rel-R)-4-chloro-13-methyl-2,3,7,10-tetraazatricyclo[7.4.0.0^2,6]trideca-1(9),3,5,7-tetraen-10-yl]phenyl}-2,2,2-trifluoroethyl]-1-imino-N-methyl-1-oxo-1λ^6-thiane-4-carboxamide] | 25 nM | 80 nM
COC[C@]1(C)CCN(c2ccc([C@H](N(C)C(=O)[C@H]3CC[S@@+]([O-])CC3)C(F)(F)F)cc2)c2cnc3cc(Cl)nn3c21 (relative stereo) [CPD0073135, (1rel-s,4rel-s)-N-[(1S)-1-[4-[(13rel-R)-4-chloro-13-(methoxymethyl)-13-methyl-2,3,7,10-tetrazatricyclo[7.4.0.0^2,6]trideca-1(9),3,5,7-tetraen-10-yl]phenyl]-2,2,2-trifluoro-ethyl]-N-methyl-1-oxo-1λ^4-thiane-4-carboxamide] | 106 nM | 130 nM
CN(C(=O)[C@H]1CCC(=O)N1)[C@@H](c1ccc(N2CCCc3c2cnc2cc(Cl)nn32)cc1)C(F)(F)F (relative stereo) [CPD0073567, (2rel-R)-N-[(1S)-1-(4-{4-chloro-2,3,7,10-tetraazatricyclo[7.4.0.0^2,6]trideca-1(9),3,5,7-tetraen-10-yl}phenyl)-2,2,2-trifluoroethyl]-N-methyl-5-oxopyrrolidine-2-carboxamide] | 35 nM | 119 nM
CNCC(=O)N1CC[C@@H](C(=O)N(C)[C@@H](c2ccc(N3CCCc4c3cnc3cc(Cl)nn43)cc2)C(F)(F)F)C1 (relative stereo) [CPD0075881, (3 rel-S)—N-[(1S)-1-[4-(4-chloro-2,3,7,10-tetrazatricyclo[7.4.0.0^2,6]trideca-1(9),3,5,7-tetraen-10-yl)phenyl]-2,2,2-trifluoro-ethyl]-N-methyl-1-[2-(methylamino)acetyl]pyrrolidine-3-carboxamide hydrochloride] | 68 nM | 210 nM
CN(C(=O)C1CCCO1)[C@@H](c1ccc(N2CCCc3c2cnc2cc(Cl)nn32)cc1)C(F)(F)F (stereo partly drawn) [CPD0021570, N-[(1S)-1-(4-{4-chloro-2,3,7,10-tetraazatricyclo[7.4.0.0^2,6]trideca-1(9),3,5,7-tetraen-10-yl}phenyl)-2,2,2-trifluoroethyl]-N-methyloxolane-2-carboxamide] | 147 nM | 142 nM
C[C@@H]1CCN(c2ccc([C@H](N(C)C(=O)[C@@H]3CCC(=O)NC3)C(F)(F)F)cc2)c2cnc3cc(Cl)nn3c21 (relative stereo) [CPD0074561, (3rel-R)-N-[(1S)-1-[4-[(13rel-R)-4-chloro-13-methyl-2,3,7,10-tetrazatricyclo[7.4.0.0^2,6]trideca-1(9),3,5,7-tetraen-10-yl]phenyl]-2,2,2-trifluoro-ethyl]-N-methyl-6-oxo-piperidine-3-carboxamide] | 29 nM | 92 nM
COC(=O)N1CCC(C(=O)N(C)[C@@H](c2ccc(N3CCCc4c3cnc3cc(Cl)nn43)cc2)C(F)(F)F)CC1 [CPD0073691, methyl 4-{[(1S)-1-(4-{4-chloro-2,3,7,10-tetraazatricyclo[7.4.0.0^2,6]trideca-1(9),3,5,7-tetraen-10-yl}phenyl)-2,2,2-trifluoroethyl](methyl)carbamoyl}piperidine-1-carboxylate] | 101 nM | 149 nM
CN(C(=O)C1CCSCC1)[C@@H](c1ccc(N2CCCc3c2cnc2cc(Cl)nn32)cc1)C(F)(F)F [CPD0019482, N-[(1S)-1-(4-{4-chloro-2,3,7,10-tetraazatricyclo[7.4.0.0^2,6]trideca-1(9),3,5,7-tetraen-10-yl}phenyl)-2,2,2-trifluoroethyl]-N-methylthiane-4-carboxamide] | 91 nM | 146 nM
CN(C(=O)[C@H]1CC[S@@+]([O-])CC1)[C@@H](c1ccc(N2CCC(C)(C)c3c2cnc2cc(F)nn32)cc1)C(F)(F)F (relative stereo) [CPD0072780, (1rel-s,4rel-s)-N-methyl-1-oxo-N-[(1S)-2,2,2-trifluoro-1-(4-{4-fluoro-13,13-dimethyl-2,3,7,10-tetraazatricyclo[7.4.0.0^2,6]trideca-1(9),3,5,7-tetraen-10-yl}phenyl)ethyl]-1λ^4-thiane-4-carboxamide] | 75 nM | 107 nM
CC1CCN(c2ccc([C@H](N(C)C(=O)[C@H]3CC[S@@](=N)(=O)CC3)C(F)(F)F)cc2)c2cnc3cc(Cl)nn3c21 (stereo partly drawn) [CPD0072812] | 31 nM | 79 nM
CN(C(=O)[C@H]1C[C@@H]([S@+](C)(=N)[O-])C1)[C@@H](c1ccc(N2CCCc3c2cnc2cc(Cl)nn32)cc1)C(F)(F)F [CPD0073224, (1S,3s)-N-[(1S)-1-(4-{4-chloro-2,3,7,10-tetraazatricyclo[7.4.0.0^2,6]trideca-1(9),3,5,7-tetraen-10-yl}phenyl)-2,2,2-trifluoroethyl]-3-[(S)-imino(methyl)oxo-λ^6-sulfanyl]-N-methylcyclobutane-1-carboxamide] | 56 nM | 181 nM
CN(C(=O)C[C@@H]1CCS(=O)(=O)C1)[C@@H](c1ccc(N2CCCc3c2cnc2cc(Cl)nn32)cc1)C(F)(F)F (relative stereo) [CPD0072800, N-[(1S)-1-(4-{4-chloro-2,3,7,10-tetraazatricyclo[7.4.0.0^2,6]trideca-1(9),3,5,7-tetraen-10-yl}phenyl)-2,2,2-trifluoroethyl]-2-[(3rel-R)-1,1-dioxo-1λ^6-thiolan-3-yl]-N-methylacetamide] | 92 nM | 187 nM
CN(C(=O)C1CCS(=N)(=O)CC1)[C@@H](c1ccc(N2CC3(CC3)Cc3c2cnc2cc(Cl)nn32)cc1)C(F)(F)F (stereo partly drawn) [CPD0073761, N-[(1S)-1-[4-(4-chlorospiro[2,3,7,10-tetrazatricyclo[7.4.0.0^2,6]trideca-1(9),3,5,7-tetraene-12,1′-cyclopropane]-10-yl)phenyl]-2,2,2-trifluoro-ethyl]-1-imino-N-methyl-1-oxo-thiane-4-carboxamide] | 78 nM | 317 nM
CN(C(=O)N1CCOCC1)[C@@H](c1ccc(N2CCCc3c2cnc2cc(Cl)nn32)cc1)C(F)(F)F [CPD0073084, N-[(1S)-1-(4-{4-chloro-2,3,7,10-tetraazatricyclo[7.4.0.0^2,6]trideca-1(9),3,5,7-tetraen-10-yl}phenyl)-2,2,2-trifluoroethyl]-N-methylmorpholine-4-carboxamide] | 168 nM | 255 nM
